Legend:
[1] = system: Enterococcus faecalis ATCC 51299 (VRE); assay: microbroth dilution MIC; type: cell-based; details: for MIC Enterococcus faecalis ATCC 51299: resistant to vancomycin, first listing in Table 4; for MIC E. faecalis VRE 51299: third listing in Table 4
[2] = system: Neisseria gonnorhea ATCC 49226; assay: disk diffusion assay; type: cell-based; details: 10 micrograms per disk; ciprofloxacin 5, vancomycin 30 micrograms per disk; GC agar with 1% growth supplement with 5% CO2
[3] = system: Listeria monocytogenes 19114; assay: microbroth dilution MIC; type: cell-based
[4] = system: Candida albicans ATCC 24433; assay: disk diffusion assay; type: cell-based; details: 10 micrograms per disk; 35° C. Further: key: R = resistant.
[5] = system: Streptococcus pneumoniae ATCC 49619; assay: disk diffusion assay; type: cell-based; details: 10 micrograms per disk; ciprofloxacin 5, vancomycin 30 micrograms per disk; MHA with 5% dsb. and 5% CO2
[6] = system: Bacillus anthracis K8902; type: cell-based; details: 10 micrograms per disk; ciprofloxacin 5, vancomycin 30 micrograms per disk; 35° C.
[7] = system: Streptococcus pneumoniae 49619; assay: microbroth dilution MIC; type: cell-based
[8] = system: S. maltophilia ATCC 13637; assay: disk diffusion assay; type: cell-based, Stenotrophomas maltophilia; details: 10 micrograms per disk; 35° C.
[9] = system: Candida parasilosis ATCC 22019; assay: disk diffusion assay; type: cell-based, Candida parapsilosis; details: 10 micrograms per disk; 35° C. Further: key: R = resistant.
[10] = system: Aspergillus fumigatus; assay: microbroth dilution MIC
[11] = system: Saccharomyces cerevisiae ATCC 9763; assay: disk diffusion assay; type: cell-based; details: 10 micrograms per disk; 35° C. Further: key: R = resistant.
[12] = system: GISA 700699; assay: microbroth dilution MIC
[13] = system: Enterococcus faecium ATCC 51559; assay: disk diffusion assay; type: cell-based; details: 10 micrograms per disk; ciprofloxacin 5, vancomycin 30 micrograms per disk; 35° C.
[14] = system: Plasmodium falciparum strain CSC-1 (Honduras); assay: antimalarial assay, 3H-phenylalanine radiobioassay in human red blood cells; details: human red blood cells, 3H-phenylalanine; standard deviation of the mean, three experiments
[15] = system: Enterococcus faecalis ATCC 29212; assay: disk diffusion assay; type: cell-based; details: 10 micrograms per disk; ciprofloxacin 5, vancomycin 30 micrograms per disk; 35° C.
[16] = system: E. faecium 49624; assay: microbroth dilution MIC; type: cell-based, Enterococcus faecium
[17] = system: Vibrio fischeri PIC 345; assay: disk diffusion assay; type: cell-based; details: 10 micrograms per disk; ciprofloxacin 5, vancomycin 30 micrograms per disk; 35° C.
[18] = system: Pseudomonas aeruginosa ATCC 27853; assay: disk diffusion assay; type: cell-based; details: 10 micrograms per disk; ciprofloxacin 5, vancomycin 30 micrograms per disk; 35° C. Further: key: R = resistant.
[19] = system: S. aureus 29213; assay: microbroth dilution MIC; type: cell-based, Staphylococcus aureus
[20] = system: S. epidermis 12228; assay: microbroth dilution MIC; type: cell-based, Staphylococcus epidermidis
[21] = system: Candida glabrata ATCC 2001; assay: disk diffusion assay; type: cell-based; details: 10 micrograms per disk; 35° C. Further: key: R = resistant.
[22] = system: M. tuberculosis H37Rv (ATCC 25618) (drug sensitive); assay: IC50 in Mycobacteria 7H11 agar; type: cell-based, Mycobacterium tuberculosis; details: 7H11 agar with 10% OADC
[23] = system: Streptococcus pneumoniae 700676; assay: microbroth dilution MIC
[24] = system: B. subtilis 1A757; assay: microbe, parasite or virus in culture; type: cell-based, Bacillus subtilis; details: for increase of MICs when DNA was added: Bacillus subtilis and Staphylococcus aureus, 20 micrograms per well sheared salmon sperm DNA
[25] = system: Candida krusei ATCC 6258; assay: disk diffusion assay; type: cell-based; details: 10 micrograms per disk; 35° C.
[26] = system: Phytophthora cinnamomi; assay: microbroth dilution MIC, plant associated microorganisms; type: cell-based; details: PD broth, 48 hours at 23° C.
Method: (§1) Incubation was for 48 hours at 23° C. A plant pathogenic strain of Pseudomonas syringae was also tested using the same PD broth medium and with concentrations of colony forming units as given above. The organisms were obtained from the Montana State University plant pathogen culture collection administered by Dr. […] The relative activities against plant pathogenic fungi ranged from a few tenths of a microgram up to thirty micrograms. Table 2 provides the results of tests of inhibitory activity of the munumbicins against various plant-pathogenic fungi and one pathogenic bacterium. The data are reported as MIC values in micrograms/ml.

[27] = system: Geotrichum candidum; assay: as above; type: cell-based; details: PD broth, 48 hours at 23° C.
Method: as §1

[28] = system: Rhizoctonia solani; assay: as above; type: cell-based; details: PD broth, 48 hours at 23° C.
Method: as §1

[29] = system: Sclerotinia sclerotiorum; assay: as above; type: cell-based; details: PD broth, 48 hours at 23° C.
Method: as §1

[30] = system: Pseudomonas syringae; assay: as above; type: cell-based; details: PD broth
Method: as §1

[31] = system: Pythium ultimum; assay: as above; type: cell-based; details: PD broth, 48 hours at 23° C.
Method: as §1

[32] = system: S. aureus ATCC 6583P; assay: MIC with and without double stranded DNA; type: cell-based, Staphylococcus aureus
[33] = system: Shigella dysenteriae ATCC 11835; assay: disk diffusion assay; type: cell-based; details: 10 micrograms per disk; 35° C.
[34] = system: Candida tropicalis ATCC 750; assay: disk diffusion assay; type: cell-based; details: 10 micrograms per disk; 35° C. Further: key: R = resistant.
[35] = system: Staphylococcus aureus ATCC 33591 (MRSA); assay: microbroth dilution MIC; type: cell-based; details: for MIC MRSA 33591: second listing in Table 4
[36] = system: Enterococcus faecium ATCC 49624; assay: disk diffusion assay; type: cell-based; details: 10 micrograms per disk; ciprofloxacin 5, vancomycin 30 micrograms per disk; 35° C.
[37] = system: Cryptococcus neoformans ATCC 32045; assay: disk diffusion assay; type: cell-based; details: 10 micrograms per disk; 35° C.
[38] = system: Bacillus subtilis; assay: microbroth dilution MIC
[39] = system: S. epidermis ATCC 12228; assay: disk diffusion assay; type: cell-based, Staphylococcus epidermidis; details: 10 micrograms per disk; 35° C.
[40] = DNA +, 20 micrograms per well of sheared salmon sperm DNA

munumbicin B
MIC Enterococcus faecalis ATCC 51299 [1]: 12.5 micrograms/ml
MIC E. faecalis 51299 ([1]; second listing in Table 4): 8 micrograms/ml
MIC E. faecalis VRE 51299 [1]: 0.5 micrograms/ml
diameter of the zone of inhibition, Neisseria gonnorhea ATCC 49226 [2]: 14 mm
MIC Listeria monocytogenes 19114 [3]: 4 micrograms/ml
diameter of the zone of inhibition, Candida albicans ATCC 24433 [4]: R
diameter of the zone of inhibition, Streptococcus pneumoniae ATCC 49619 [5]: 17 mm
diameter of the zone of inhibition, Bacillus anthracis K8902 [6]: 18 mm
MIC Streptococcus pneumoniae 49619 [7]: 0.5 micrograms/ml
diameter of the zone of inhibition, S. maltophilia ATCC 13637 [8]: 9 mm
diameter of the zone of inhibition, Candida parasilosis ATCC 22019 [9]: R
MIC Aspergillus fumigatus [10]: 20 micrograms/ml
diameter of the zone of inhibition, Saccharomyces cerevisiae ATCC 9763 [11]: R
MIC GISA 700699 [12]: 2 micrograms/ml
diameter of the zone of inhibition, Enterococcus faecium ATCC 51559 [13]: 26 mm
IC50 Plasmodium falciparum [14]: 0.13 ± 0.07 µg/mL
diameter of the zone of inhibition, Enterococcus faecalis ATCC 29212 [15]: 18 mm
MIC E. faecium 49624 [16]: 0.5 micrograms/ml
diameter of the zone of inhibition, Vibrio fischeri PIC 345 [17]: 16 mm
diameter of the zone of inhibition, Pseudomonas aeruginosa ATCC 27853 [18]: R
MIC S. aureus 29213 [19]: 0.5 micrograms/ml
MIC S. epidermis 12228 [20]: 1 micrograms/ml
diameter of the zone of inhibition, Candida glabrata ATCC 2001 [21]: R
IC50 M. tuberculosis H37Rv (ATCC 25618) (drug sensitive) [22]: 46 micrograms/ml
MIC Streptococcus pneumoniae 700676 [23]: 0.5 micrograms/ml
increase of MICs when DNA was added [24]: affected
MIC B. subtilis 1A757 [24, 40]: >32 micrograms/ml
1×MIC against Bacillus subtilis ([24]; concentration used in macromolecular synthesis assay): 2 micrograms/ml
diameter of the zone of inhibition, Candida krusei ATCC 6258 [25]: R
MIC Phytophthora cinnamomi [26]: 6.2 micrograms/ml
MIC Geotrichum candidum [27]: 31.2 micrograms/ml
MIC Rhizoctonia solani [28]: 8.0 micrograms/ml
MIC Sclerotinia sclerotiorum [29]: 0.20 micrograms/ml
MIC Pseudomonas syringae [30]: 2.0 micrograms/ml
MIC Pythium ultimum [31]: 0.2 micrograms/ml
MIC S. aureus ATCC 6583P [32, 40]: >32 micrograms/ml
MIC S. aureus ATCC 6583P ([32]; DNA −): 2 micrograms/ml
diameter of the zone of inhibition, Shigella dysenteriae ATCC 11835 [33]: R
diameter of the zone of inhibition, Candida tropicalis ATCC 750 [34]: R
MIC Staphylococcus aureus ATCC 33591 ([35]; methicillin resistant strain, first listing in Table 4): 2.5 micrograms/ml
MIC MRSA 33591 [35]: 0.5 micrograms/ml
diameter of the zone of inhibition, Enterococcus faecium ATCC 49624 [36]: 21 mm
diameter of the zone of inhibition, Cryptococcus neoformans ATCC 32045 [37]: 12 mm
MIC Bacillus subtilis ([38]; first listing in Table 4): 8 micrograms/ml
MIC Bacillus subtilis ([38]; second listing in Table 4): 2 micrograms/ml
diameter of the zone of inhibition, S. epidermis ATCC 12228 [39]: 21 mm

munumbicin C
MIC Enterococcus faecalis ATCC 51299 [1]: 16 micrograms/ml
MIC E. faecalis VRE 51299 [1]: 0.5 micrograms/ml
diameter of the zone of inhibition, Neisseria gonnorhea ATCC 49226 [2]: 8 mm
MIC Listeria monocytogenes 19114 [3]: 4 micrograms/ml
diameter of the zone of inhibition, Candida albicans ATCC 24433 [4]: R
diameter of the zone of inhibition, Streptococcus pneumoniae ATCC 49619 [5]: 7 mm
diameter of the zone of inhibition, Bacillus anthracis K8902 [6]: R
MIC Streptococcus pneumoniae 49619 [7]: 0.125 micrograms/ml
diameter of the zone of inhibition, S. maltophilia ATCC 13637 [8]: R
diameter of the zone of inhibition, Candida parasilosis ATCC 22019 [9]: R
MIC Aspergillus fumigatus [10]: 20 micrograms/ml
diameter of the zone of inhibition, Saccharomyces cerevisiae ATCC 9763 [11]: R
MIC GISA 700699 [12]: 2 micrograms/ml
diameter of the zone of inhibition, Enterococcus faecium ATCC 51559 [13]: 28 mm
IC50 Plasmodium falciparum [14]: 0.0065 µg/mL
diameter of the zone of inhibition, Enterococcus faecalis ATCC 29212 [15]: 20 mm
MIC E. faecium 49624 [16]: 0.5 micrograms/ml
diameter of the zone of inhibition, Vibrio fischeri PIC 345 [17]: 9 mm
diameter of the zone of inhibition, Pseudomonas aeruginosa ATCC 27853 [18]: R
MIC S. aureus 29213 [19]: 1 micrograms/ml
MIC S. epidermis 12228 [20]: 2 micrograms/ml
diameter of the zone of inhibition, Candida glabrata ATCC 2001 [21]: R
IC50 M. tuberculosis H37Rv (ATCC 25618) (drug sensitive) [22]: >150 micrograms/ml
MIC Streptococcus pneumoniae 700676 [23]: 0.125 micrograms/ml
increase of MICs when DNA was added [24]: affected
MIC B. subtilis 1A757 [24, 40]: >32 micrograms/ml
MIC B. subtilis 1A757 ([24]; DNA −): 0.5 micrograms/ml
diameter of the zone of inhibition, Candida krusei ATCC 6258 [25]: 8 mm
MIC Phytophthora cinnamomi [26]: 1.5 micrograms/ml
MIC Geotrichum candidum [27]: 15.6 micrograms/ml
MIC Rhizoctonia solani [28]: 1.5 micrograms/ml
MIC Sclerotinia sclerotiorum [29]: 8.0 micrograms/ml
MIC Pseudomonas syringae [30]: 15.6 micrograms/ml
MIC Pythium ultimum [31]: 4.0 micrograms/ml
MIC S. aureus ATCC 6583P [32, 40]: >32 micrograms/ml
MIC S. aureus ATCC 6583P ([32]; DNA −): 0.5 micrograms/ml
diameter of the zone of inhibition, Shigella dysenteriae ATCC 11835 [33]: R
diameter of the zone of inhibition, Candida tropicalis ATCC 750 [34]: R
MIC MRSA 33591 [35]: 0.5 micrograms/ml
diameter of the zone of inhibition, Enterococcus faecium ATCC 49624 [36]: 23 mm
diameter of the zone of inhibition, Cryptococcus neoformans ATCC 32045 [37]: 12 mm
MIC Bacillus subtilis ([38]; first listing in Table 4): >8 micrograms/ml
MIC Bacillus subtilis ([38]; second listing in Table 4): 0.25 micrograms/ml
diameter of the zone of inhibition, S. epidermis ATCC 12228 [39]: R

Reference: patent publication US7259004B1, “Endophytic streptomycetes from higher plants with biological activity” (Montana State University, priority 2002, dated 2007)
